Test: Handling and storage stability of crystalline Form-SP9
Format: physicochemical
Conditions: handling and storage for longer time; solid state
Text: Crystalline Form-SP9 retains its stoichiometry even on exposure to uncontrolled environmental conditions. This stable form thus, offers various advantages in terms of storage, shelf life and favorable impurity profile.

stability of the crystal form (morphology and physicochemical characteristics): very stable crystal lattice
Structure (SMILES): Nc1nc2[nH]cc(CCc3ccc(C(=O)N[C@@H](CCC(=O)[O-])C(=O)[O-])cc3)c2c(=O)[nH]1.[K+].[K+] [Form-SP9, Pemetrexed dipotassium]

Source: patent publication US10072012B2, “Process for crystalline pemetrexed dipotassium salt” (SHILPA MEDICARE LIMITED, priority 2013, dated 2018)
